Key:
giant foxtail [1] = assay: Test C pre-/postemergence test; type: in vivo, Setaria faberii
How it was run: (§1)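 Compounds in a non-phytotoxic solvent with surfactant applied preemergence to seeded pots and, at the same time, postemergence to plants 2–18 cm tall (1- to 4-leaf stage). Paddy tests: pots flooded to 3 cm, compound applied into the water, depth held throughout.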

catchweed bedstraw = assay: Test C pre-/postemergence test; type: in vivo, Galium aparine
How it was run: as §1

crabgrass = assay: Test C pre-/postemergence test; type: in vivo, Digitaria sanguinalis
How it was run: as §1

lambsquarters = assay: Test C pre-/postemergence test; type: in vivo, Chenopodium album
How it was run: as §1

Surinam grass = assay: Test C pre-/postemergence test; type: in vivo, Brachiaria decumbens
How it was run: as §1

barnyardgrass = assay: Test C flooded paddy test; type: in vivo, Echinochloa crus-galli; conditions: Flood, scale 0 to 100, 0 no effect, 100 complete control, 13 to 15 days
How it was run: (§2)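 Test compounds are applied straight into paddy water held 3 cm above the soil surface, with that flood maintained for the whole test. After 13 to 15 days in the greenhouse, each species is scored visually relative to controls.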

rice = assay: Test C flooded paddy test; type: in vivo, Oryza sativa; conditions: Flood, scale 0 to 100, 0 no effect, 100 complete control, 13 to 15 days
How it was run: as §2

johnsongrass = assay: Test C pre-/postemergence test; type: in vivo, Sorghum halepense
How it was run: as §1

wheat = assay: Test A pre-/postemergence greenhouse test; type: in vivo, Triticum aestivum; conditions: for Plant response rating, Wheat: 0 to 100 scale where 0 is no effect and 100 is complete control; for Wheat plant response rating: 0 to 100 scale
How it was run: (§3)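 Sowing in loam/sand; same-day pre (directed soil spray) and post (foliar, 1–2 leaf, 2–10 cm) treatment with surfactant-containing non-phytotoxic solvent formulation; ~10 days in greenhouse; eye-scored injury against untreated plants.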

downy brome = assay: Test C pre-/postemergence test; type: in vivo, Bromus tectorum
How it was run: as §1

bermudagrass = assay: Test C pre-/postemergence test; type: in vivo, Cynodon dactylon
How it was run: as §1

velvetleaf = assay: Test A pre-/postemergence greenhouse test; type: in vivo, Abutilon theophrasti; conditions: for Plant response rating, Velvetleaf: 0 to 100 scale where 0 is no effect and 100 is complete control; for Velvetleaf plant response rating: 0 to 100 scale
How it was run: as §3

soybean = assay: Test C pre-/postemergence test; type: in vivo, Glycine max
How it was run: as §1

pigweed = assay: Test C pre-/postemergence test; type: in vivo, Amaranthus retroflexus
How it was run: as §1

morningglory = assay: Test C pre-/postemergence test; type: in vivo, Ipomoea coccinea
How it was run: as §1

corn = assay: Test A pre-/postemergence greenhouse test; type: in vivo, Zea mays; conditions: for Plant response rating, Corn: 0 to 100 scale where 0 is no effect and 100 is complete control; for Corn plant response rating: 0 to 100 scale
How it was run: as §3

giant foxtail [2] = assay: Test A pre-/postemergence greenhouse test; type: in vivo, Setaria faberi; conditions: for Plant response rating, Foxtail, Giant: 0 to 100 scale where 0 is no effect and 100 is complete control; for Foxtail, Giant plant response rating: 0 to 100 scale
How it was run: as §3

[3] = 62 g ai/ha, Preemergence, scale 0 to 100
[4] = 125 g ai/ha, preemergence, scale 0 (no effect) to 100 (complete control)
[5] = Preemergence, 31 g ai/ha, scale 0 to 100 (0 no effect, 100 complete control)
[6] = preemergence, 250 g ai/ha, scale 0 (no effect) to 100 (complete control)
[7] = Postemergence, 500 g ai/ha, 0 is no effect, 100 is complete control
[8] = Preemergence, 125 g ai/ha, 0 no effect, 100 complete control

CC(c1c(C(F)(F)F)nn(CC(F)(F)F)c1Cl)[S+]([O-])c1cccc[n+]1[O-] (stereo not shown) [Compound 46]
25: Soybean plant response rating (soybean; [6])
10: Plant response rating, Barnyardgrass (barnyardgrass; 62 g ai/ha) | Plant response rating, Rice (rice; 62 g ai/ha) | Bromegrass, Downy plant response rating (downy brome; [4])
0: Galium plant response rating (catchweed bedstraw; [3]) | Plant response rating, Galium (catchweed bedstraw; [5]) | Plant response rating, Lambsquarters (lambsquarters; [5]) | Plant response rating, Wheat (wheat; Postemergence, 125 g ai/ha) | Wheat plant response rating (wheat; [8]) | Bromegrass, Downy plant response rating (downy brome; [3]) | Plant response rating, Bromegrass, Downy (downy brome; [5]) | Velvetleaf plant response rating (velvetleaf; [8]) | Soybean plant response rating (soybean; [3]) | Soybean plant response rating (soybean; [4]) | Plant response rating, Soybean (soybean; [5]) | Plant response rating, Pigweed (pigweed; [5]) | Plant response rating, Corn (corn; Postemergence, 125 g ai/ha) | Corn plant response rating (corn; [7]) | Corn plant response rating (corn; [8]) | Plant response rating, Corn (corn; Preemergence, 500 g ai/ha)
85: Plant response rating, Foxtail, Giant (giant foxtail [1]; [5]) | Galium plant response rating (catchweed bedstraw; [4]) | Surinam Grass plant response rating (Surinam grass; [3]) | Plant response rating, Surinam Grass (Surinam grass; [5])
70: Plant response rating, Foxtail, Giant (giant foxtail [2]; Postemergence, 125 g ai/ha)
100: Foxtail, Giant plant response rating (giant foxtail [1]; [3]) | Foxtail, Giant plant response rating (giant foxtail [1]; [4]) | Foxtail, Giant plant response rating (giant foxtail [1]; [6]) | Crabgrass, Large plant response rating (crabgrass; [3]) | Crabgrass, Large plant response rating (crabgrass; [4]) | Plant response rating, Crabgrass, Large (crabgrass; [5]) | Crabgrass, Large plant response rating (crabgrass; [6]) | Lambsquarters plant response rating (lambsquarters; [4]) | Lambsquarters plant response rating (lambsquarters; [6]) | Surinam Grass plant response rating (Surinam grass; [4]) | Surinam Grass plant response rating (Surinam grass; [6]) | Johnsongrass plant response rating (johnsongrass; [6]) | Bermudagrass plant response rating (bermudagrass; 62 g ai/ha, Preemergence, scale 0 to 100 (0 no effect, 100 complete control)) | Bermudagrass plant response rating (bermudagrass; [4]) | Plant response rating, Bermudagrass (bermudagrass; [5]) | Bermudagrass plant response rating (bermudagrass; [6]) | Pigweed plant response rating (pigweed; [4]) | Pigweed plant response rating (pigweed; [6]) | Morningglory plant response rating (morningglory; [3]) | Morningglory plant response rating (morningglory; [4]) | Plant response rating, Morningglory (morningglory; [5]) | Morningglory plant response rating (morningglory; [6]) | Plant response rating, Foxtail, Giant (giant foxtail [2]; Preemergence, 500 g ai/ha)
80: Johnsongrass plant response rating (johnsongrass; [3]) | Foxtail, Giant plant response rating (giant foxtail [2]; [7])
40: Plant response rating, Johnsongrass (johnsongrass; [5]) | Velvetleaf plant response rating (velvetleaf; [7])
15: Bromegrass, Downy plant response rating (downy brome; [6])
50: Wheat plant response rating (wheat; [7]) | Plant response rating, Velvetleaf (velvetleaf; Preemergence, 500 g ai/ha)
55: Plant response rating, Rice (rice; 250 g ai/ha)
60: Plant response rating, Barnyardgrass (barnyardgrass; 250 g ai/ha) | Plant response rating, Wheat (wheat; Preemergence, 500 g ai/ha)
90: Galium plant response rating (catchweed bedstraw; [6]) | Lambsquarters plant response rating (lambsquarters; [3]) | Johnsongrass plant response rating (johnsongrass; [4]) | Pigweed plant response rating (pigweed; [3]) | Foxtail, Giant plant response rating (giant foxtail [2]; [8])
30: Plant response rating, Velvetleaf (velvetleaf; Postemergence, 125 g ai/ha)
